From US5416087A, “Bis-benzo, cyclohepta piperidylidene, piperidine and piperazine compounds, compositions and methods of use” (priority 1993, dated 1995)

What was measured:
[1] = tested on: Histamine (agonist bronchospasm); assay: Histamine-induced bronchospasm in guinea pigs; assay type: in vivo, Male Hartley guinea pigs; conditions: dose 1 mg/kg oral, histamine 10 ug/kg i.v.
Experimental: (§1) Male Hartley guinea pigs (450-550 g) were obtained from Charles River Breeding Laboratories. The animals were fasted overnight and the following day were anesthetized with 0.9 ml/kg i.p. of dialurethane (containing 0.1 g/ml diallylbarbituric acid, 0.4 g/ml ethylurea and 0.4 g/ml urethane). The left jugular vein was cannulated for the administration of compounds. The trachea was cannulated and the animals were ventilated by a rodent respirator at 55 strokes/min. with a stroke volume of 4 ml. A side arm to the tracheal cannula was connected to a pressure transducer to obtain a continuous measure of inflation pressure. Bronchoconstriction was measured as the percent increase in inflation pressure that peaked within 5 min. after challenge with spasmogen. […] Each animal was challenged with only a single spasmogen. The effect of a compound on the bronchospasm is expressed as a percent inhibition of the increase in inflation pressure compared to the increase in a control group.

[2] = tested on: PAF (agonist bronchospasm); assay: PAF-induced bronchospasm in guinea pigs; assay type: in vivo, Male Hartley guinea pigs; conditions: dose 10 mg/kg oral, PAF 0.4 μg/kg i.v.
Experimental: as §1

[3] = tested on: PAF-induced platelet aggregation; assay: Platelet aggregation assay (PAF-induced aggregation of human platelet-rich plasma); assay type: cell-based; conditions: 2 min, human PRP, PAF 1-5×10^-8 M, 37° C., 2 min. incubation, read-out: PAF Antagonism (in vitro) IC50
Experimental: Platelet-activating factor (PAF) causes aggregation of platelets by a receptor-mediated mechanism. Therefore, PAF-induced platelet aggregation provides a simple and convenient assay to screen compounds for PAF antagonism.
Blood was centrifuged at 110×g for 15 min. and the supernatant platelet-rich plasma (PRP) carefully transferred into a polypropylene tube. Platelet-poor-plasma (PPP) was prepared by centrifuging PRP at 12,000×g for 2 min. (Beckman Microfuge B). PRP was used within 3 hr. of drawing the blood.
PAF was dissolved in chloroform:methanol (1:1, v/v) at a concentration of 2 mg/ml and stored at -70° C. An aliquot of this solution was transferred to a polypropylene tube and dried under a flow of nitrogen gas. […] This stock solution was further diluted to appropriate concentrations in Hepes-saline-BSA buffer. Collagen (Sigma) and adenosine diphosphate (ADP) (Sigma) were purchased as solutions. Test compounds were initially dissolved in dimethyl sulfoxide (DMSO) at a concentration of 50 mM and then further diluted in Hepes-saline-BSA buffer to achieve appropriate concentrations.
When an aggregating agent such as PAF is added to PRP, platelets aggregate. An aggregometer quantifies this aggregation by measuring and comparing light (infra-red) transmission through PPP and PRP. […]

Structure (SMILES) | Histamine Agonist Bronchospasm (in vivo) - oral, % Inhibition [1] [%] | PAF Agonist Bronchospasm (in vivo) - oral, % Inhibition [2] [%] | IC50 [3] [µM]
CCOC(=O)N1CCC(=C2c3ccc(Cl)cc3CCc3cccnc32)CC1 [Compound 1] | > 50 | < 50 | 
O=C(c1cc[n+]([O-])cc1)N1CCN(C2c3ccccc3-c3ccccc32)CC1 [Example 8] |  |  | 2.5
